The values below are quoted from earlier work in patent US20260083654A1, “PHOTOPROTECTIVE SYSTEM CONSISTING OF 4 SUNSCREENS” (PIERRE FABRE DERMO-COSMETIQUE, priority 2019, published 2026).

The structures appear in SMILES notation. “And” between values parts separate entries of the source, which are not always exact repeats. Identical values can stand only once.

For this data set the following is noted: two peaks, broad spectrum filter.

Regarding `CCCCC(CC)COc1ccc(-c2nc(-c3ccc(OC)cc3)nc(-c3ccc(OCC(CC)CCCC)cc3O)n2)c(O)c1` (stereo not shown) [BEMT, 2,4-bis[4-(2-ethylhexyloxy)-2-hydroxyphenyl]-6-(4-methoxyphenyl)-1,3,5-triazine], the absorption peaks is 310 nm and 340 nm.
